Assays:
[1] = tested on: ERK1/2 phosphorylation of p90RSK in HT29 cells; assay: pRSK MSD Assay in HT29 cells; format: cell-based; settings: Homo sapiens, HT-29, read-out: ERK1/ERK2 PRSK MSD HT29 EC50
Procedure: The protocol below describes an assay to measure the kinase activity of ERK1/2 to phosphorylate a substrate, p90RSK, in the presence or absence of a test compound. This experiment was conducted using a Mesoscale Discovery plate. The day before the assay, HT29 cells were split and plated at 50,000 cells/well in complete growth media. After allowing cells to adhere, the media was removed and replaced with media containing 0.1% FBS and incubated overnight. Blank MSD plates (Mesoscale Discovery, Cat # L15XA3) were coated with 25 μl/well RSK capture antibody (BD Biosciences, Cat. #610226) and incubated at 4° C. overnight, then blocked with 150 μl of 3% BSA solution. The next day, the media from the cell culture plate was removed and replaced with 100 μl of media containing a test compound and incubated for 120 minutes at 37° C. The media was removed and replaced with 55 μl per well of lysis buffer with protease inhibitors (Roche Biosciences, Cat. #11836170001) and phosphatase inhibitors (Sigma-Aldrich, Cat. # P-0044 and P-5726), followed by incubation at 4° C. for 30 minutes. 50 μl of lysate was transferred to a blocked MSD plate, followed by incubation at room temperature for 2 hours under constant shaking. The plate was washed 3 times with MSD wash buffer (Mesoscale Discovery, Cat. # R617TX), and 25 μl/well phospho-RSK (pRSK) detection antibody (Cell Signaling Technology, Cat. #9335) was added with Sulfo-tagged detection antibody (Mesoscale Discovery, Cat. # R32AB-1) diluted in 1% BSA in MSD wash buffer. This mixture was incubated for 1 hour at room temperature under constant shaking. The plate was washed 3 times, and 150 μl 1×MSD read buffer was added, followed by signal detection in an MSD plate reader.

[2] = tested on: HT-29 cells (colorectal adenocarcinoma); assay: Inhibition of cancer cell proliferation, HT-29 (CellTiterGlo, 72 hours); format: cell-based; settings: Homo sapiens
Procedure: Measurement of Inhibition of Cancer Cell Proliferation (HT-29/Colorectal Adenocarcinoma)
The following protocol used an HT-29 cell line, which cell line is a model for colorectal adenocarcinoma. HT-29 cells were split and 3000 cells in 100 μl of growth medium were added per well of a flat-bottom 96-well plate. A two-fold test compound solution in serum-free RPM1640 was made, starting at 5,000 nM. Then, 3-fold serial dilutions were made across the plate from well 1 to well 11. Well 12, the last well in a row on the plate, was left as untreated control. 100 μl compound solutions were then transferred to the wells, so the total volume of media was 200 μl per well. Plates were returned to a 37° C. incubator, and the cells were cultured for 72 hours. To measure cell proliferation after 72 hours, media was discarded from the plates, 50 μl/well of fresh medium was added, and 50 μl CellTiterGlo solution was added (Promega Cat#G7573). The plate was covered with a dark lid and incubated for 10 min. A white sealing tape was applied to the bottom of the plate, and the plate was read in a luminescence plate reader. […] A 2-fold serial dilution was used to generate 8 cell densities from 50,000-390 cells per well in 50 μl media. 50 μl CellTiterGlo was added per well, and the plate was read in a luminescence plate reader after 10 min. The reading was plotted vs. cell number to generate a standard curve and the equation of the curve fit. The compound-treated sample luminescence readings were converted to cell numbers using the curve-fit equation. The percent of inhibition, using untreated control as 100% growth, was then calculated. GI50 was then calculated by GraphPad Prism.

[3] = target: T1, MEK1 activated ERK1 (Homo sapiens, UniProt P27361); assay: Omnia continuous-read kinase assay for potency against MEK1 activated ERK1; format: biochemical; settings: MEK1 activated ERK1, ATP at KM; read-out: ERK1 Omnia WT ATP KM IC50
T1 construct: purchased Millipore (Billerica, Mass.) 14-439-K
Summary of the method: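 Apparent IC50 came from initial reaction slopes (RFU vs time) plotted against log inhibitor with a variable-slope fit. Reactions were started with ERK1 (4 nM final) added to 50 μM ATP, roughly at its appKM, and 10 μM Sox-conjugated ST17 peptide in 20 mM Tris pH 7.5, 5 mM MgCl2. Fluorescence was monitored every 71 seconds.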

T1 sequence (P27361 whole entry): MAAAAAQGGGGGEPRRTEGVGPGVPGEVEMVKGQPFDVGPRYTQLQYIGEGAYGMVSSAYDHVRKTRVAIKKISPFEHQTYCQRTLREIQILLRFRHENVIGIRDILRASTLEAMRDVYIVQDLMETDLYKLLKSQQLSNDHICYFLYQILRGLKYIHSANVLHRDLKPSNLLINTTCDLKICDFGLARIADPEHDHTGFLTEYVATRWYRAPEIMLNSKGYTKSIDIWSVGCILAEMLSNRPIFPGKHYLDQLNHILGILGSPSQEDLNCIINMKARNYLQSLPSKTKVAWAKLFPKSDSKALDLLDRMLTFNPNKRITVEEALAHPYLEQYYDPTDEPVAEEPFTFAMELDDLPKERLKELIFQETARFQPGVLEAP

Row | Structure (SMILES) | EC50 [1] [nM] | GI50 [2] [nM] | IC50 [3] [nM]
1 | C=CC(=O)Nc1ccccc1Nc1nc(N[C@H]2CCCN(C=O)C2)ncc1C(F)(F)F [Compound I-9, (S)—N-(2-((2-((1-formylpiperidin-3-yl)amino)-5-(trifluoromethyl)pyrimidin-4-yl)amino)phenyl)acrylamide] | < 100 | 101 to 500 | –
2 | C=CC(=O)Nc1ccccc1Nc1nc(NC2CCN(S(C)(=O)=O)CC2)ncc1C(F)(F)F [Compound I-13, N-(2-((2-((1-(methylsulfonyl)piperidin-4-yl)amino)-5-(trifluoromethyl)pyrimidin-4-yl)amino)phenyl)acrylamide] | 101 to 500 | 101 to 500 | –
3 | C=CC(=O)Nc1ccccc1Nc1nc(Nc2cc(C(=O)NOC)ccc2C)ncc1C(F)(F)F [Compound I-69, 3-((4-((2-Acrylamidophenyl)amino)-5-(trifluoromethyl)pyrimidin-2-yl)amino)-N-methoxy-4-methylbenzamide] | 101 to 500 | < 100 | –
4 | C=CC(=O)Nc1ccccc1Nc1nc(Nc2cc(C(N)=O)ccc2C#N)ncc1C(F)(F)F [Compound I-71, 3-((4-((2-Acrylamidophenyl)amino)-5-(trifluoromethyl)pyrimidin-2-yl)amino)-4-cyanobenzamide] | < 100 | 101 to 500 | –
5 | C=C(C)S(=O)(=O)Nc1cc(F)ccc1Nc1nc(Nc2cc(C(C)=O)ccc2C)ncc1C(F)(F)F [Compound I-99, N-(2-((2-((5-acetyl-2-methylphenyl)amino)-5-(trifluoromethyl)pyrimidin-4-yl)amino)-5-fluorophenyl)prop-1-ene-2-sulfonamide] | > 1000 | – | 501 to 999
6 | C=CC(=O)Nc1ccccc1Nc1nc(NC2CCCCC2)ncc1Cl [Compound I-107, N-(2-((5-chloro-2-(cyclohexylamino)pyrimidin-4-yl)amino)phenyl)acrylamide] | 101 to 500 | – | 101 to 500
7 | CCOCCC(=O)Nc1ccccc1Nc1nc(Nc2cc(C(N)=O)ccc2C)ncc1Cl [Compound I-130] | – | > 1000 | –
8 | C=CC(=O)Nc1ccccc1Nc1nc(N[C@H]2CCCN(C(=O)C(C)(C)O)C2)ncc1Cl [Compound I-135, (S)—N-(2-((5-chloro-2-((1-(2-hydroxy-2-methylpropanoyl)piperidin-3-yl)amino)pyrimidin-4-yl)amino)phenyl)acrylamide] | > 1000 | – | 101 to 500
9 | C=CC(=O)Nc1ccccc1Nc1nc(N[C@H]2CCCN(C(=O)[C@H](C)O)C2)ncc1Cl [Compound I-138, N-(2-((5-chloro-2-(((S)-1-((S)-2-hydroxypropanoyl)piperidin-3-yl)amino)pyrimidin-4-yl)amino)phenyl)acrylamide] | > 1000 | – | 501 to 999
10 | C=CC(=O)Nc1ccccc1Nc1nc(Nc2cc(C(=O)NOC)ccc2OC)ncc1Cl [Compound I-187, 3-((4-((2-acrylamidophenyl)amino)-5-chloropyrimidin-2-yl)amino)-N,4-dimethoxybenzamide] | 101 to 500 | – | 101 to 500
11 | C=CC(=O)N[C@@H]1CCCC[C@H]1Nc1nc(Nc2cc(C(=O)NOC)ccc2C)ncc1Cl [Compound I-190, 3-((4-(((1R,2R)-2-acrylamidocyclohexyl)amino)-5-chloropyrimidin-2-yl)amino)-N-methoxy-4-methylbenzamide] | – | > 1000 | –
12 | C=CC(=O)Nc1ccccc1Nc1nc(Nc2cc(C(=O)NOCCO)ccc2OC)ncc1Cl [Compound I-194, 3-((4-((2-acrylamidophenyl)amino)-5-chloropyrimidin-2-yl)amino)-N-(2-hydroxyethoxy)-4-methoxybenzamide] | 501 to 999 | – | 101 to 500
13 | C=CC(=O)Nc1ccccc1Nc1nc(Nc2cc(C(=O)NOC)ccc2C#N)ncc1Cl [Compound I-195, 3-((4-((2-acrylamidophenyl)amino)-5-chloropyrimidin-2-yl)amino)-4-cyano-N-methoxybenzamide] | > 1000 | – | 101 to 500
14 | C=CC(=O)N(C)c1ccccc1Nc1nc(Nc2cc(C(N)=O)ccc2C#N)ncc1Cl [Compound I-196, 3-((5-chloro-4-((2-(N-methylacrylamido)phenyl)amino)pyrimidin-2-yl)amino)-4-cyanobenzamide] | > 1000 | – | 501 to 999
15 | C=CC(=O)Nc1ccccc1Nc1nc(Nc2cc(C(=O)NOCCO)ccc2C)ncc1Cl [Compound I-198, 3-((4-((2-acrylamidophenyl)amino)-5-chloropyrimidin-2-yl)amino)-N-(2-hydroxyethoxy)-4-methylbenzamide] | 101 to 500 | – | 101 to 500
16 | C=CC(=O)Nc1cc(F)ccc1Nc1nc(Nc2cc(C(N)=O)ccc2C#N)ncc1Cl [Compound I-207, 3-(4-(2-acrylamido-4-fluorophenylamino)-5-chloropyrimidin-2-ylamino)-4-cyanobenzamide] | > 1000 | – | 101 to 500
17 | C=CC(=O)Nc1ccccc1Nc1nc(Nc2ccc(F)cc2OC)ncc1Cl [Compound I-210, N-(2-((5-chloro-2-((4-fluoro-2-methoxyphenyl)amino)pyrimidin-4-yl)amino)phenyl)acrylamide] | 101 to 500 | – | 101 to 500
18 | C=CC(=O)Nc1cc(F)ccc1Nc1nc(Nc2ccc(F)cc2OC)ncc1Cl [Compound I-213, N-(2-((5-chloro-2-((4-fluoro-2-methoxyphenyl)amino)pyrimidin-4-yl)amino)-5-fluorophenyl)acrylamide] | 101 to 500 | – | 101 to 500
19 | C=CC(=O)Nc1ccccc1Nc1nc(Nc2cc(C(=O)O)ccc2C)ncc1Cl [Compound I-225, 3-((4-((2-acrylamidophenyl)amino)-5-chloropyrimidin-2-yl)amino)-4-methylbenzoic acid] | > 1000 | – | 101 to 500
20 | C#CC(=O)NCCCOc1cc(C)c(Nc2ncc(Cl)c(Nc3ccccc3NC(=O)C=C)n2)cc1C(N)=O [Compound I-227, 5-((4-((2-acrylamidophenyl)amino)-5-chloropyrimidin-2-yl)amino)-4-methyl-2-(3-propiolamidopropoxy)benzamide] | > 1000 | – | 101 to 500
21 | C=CC(=O)Nc1cc(C)ccc1Nc1nc(Nc2ccnc(Cl)c2)ncc1Cl [Compound I-230, N-(2-((5-chloro-2-((2-chloropyridin-4-yl)amino)pyrimidin-4-yl)amino)-5-methylphenyl)acrylamide] | 101 to 500 | – | 501 to 999
22 | C=CC(=O)Nc1ccccc1Oc1nc(Nc2ccc(N3CCN(C(C)=O)CC3)cc2OC)ncc1C(N)=O [Compound I-258, 2-((4-(4-acetylpiperazin-1-yl)-2-methoxyphenyl)amino)-4-(2-acrylamidophenoxyl)pyrimidine-5-carboxamide] | – | > 1000 | –
23 | C=CC(=O)Nc1ccccc1Nc1nc(Nc2cc(NC(=O)CCCC(=O)NCCCOCCOCCOCCCNC(=O)CCCC[C@@H]3SC[C@@H]4NC(=O)N[C@@H]43)cc(C(N)=O)c2)ncc1Cl [Compound I-304, N^1-(3-((4-((2-acrylamidophenyl)amino)-5-chloropyrimidin-2-yl)amino)-5-carbamoylphenyl)-N^5-(15-oxo-19-((3aS,4S,6aR)-2-oxohexahydro-1H-thieno[3,4-d]imidazol-4-yl)-4,7,10-trioxa-14-azanonadecyl)glutaramide] | > 1000 | – | 101 to 500
24 | C=CC(=O)Nc1ccccc1Nc1nc(Nc2cc(C(N)=O)c(OCCCNC(=O)C#CC)cc2C)ncc1Cl [Compound I-305, 5-((4-((2-acrylamidophenyl)amino)-5-chloropyrimidin-2-yl)amino)-2-(3-(but-2-ynamido)propoxy)-4-methylbenzamide] | > 1000 | – | 101 to 500

— US9561228B2 (Celgene Avilomics Research, Inc., priority 2013, dated 2017)
